PubChem BioAssay (NCI)
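GI50 marks 50% less growth. TGI is the concentration that stops growth completely.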

How the values were obtained:
Assay in all cases: NCI anticancer screen, dose series, 384-well format; in the data active means GI50 below about 0.43 µM; inactive means the rest
[1] = tested on: NCI-H226 lung
[2] = tested on: U251 glioblastoma
[3] = tested on: SNB-75 CNS
[4] = tested on: MALME-3M melanoma
[5] = tested on: KM12 colon
[6] = tested on: HS 578T breast
[7] = tested on: DU-145 prostate
[8] = tested on: OVCAR-8 ovarian
[9] = tested on: OVCAR-3 ovarian
[10] = tested on: OVCAR-5 ovarian
[11] = tested on: SF-539 CNS
[12] = tested on: SN12C renal
[13] = tested on: HOP-62 NSCLC
[14] = tested on: TK-10 renal
[15] = tested on: A498 renal
[16] = tested on: UACC-257 melanoma
[17] = tested on: A549 NSCLC
[18] = tested on: SK-MEL-28 melanoma
[19] = tested on: MOLT-4 leukemia
[20] = tested on: NCI-H460 NSCLC
[21] = tested on: NCI/ADR-RES ovarian
[22] = tested on: HL-60(TB) leukemia
[23] = tested on: NCI-H23 lung
[24] = tested on: M14 melanoma
[25] = tested on: NCI-H322M lung
[26] = tested on: SK-OV-3 ovarian
[27] = tested on: SNB-19 CNS
[28] = tested on: SF-295 CNS
[29] = tested on: COLO 205 colon
[30] = tested on: SK-MEL-5 melanoma
[31] = tested on: MDA-MB-468 breast
[32] = tested on: MDA-MB-435 melanoma
[33] = tested on: HOP-92 NSCLC
[34] = tested on: UACC-62 melanoma
[35] = tested on: RXF 393 renal
[36] = tested on: 786-0 renal
[37] = tested on: SK-MEL-2 melanoma
[38] = tested on: T-47D breast
[39] = tested on: BT-549 breast
[40] = tested on: SF-268 CNS
[41] = tested on: CAKI-1 renal
[42] = tested on: CCRF-CEM leukemia
[43] = tested on: HT29 colon
[44] = tested on: HCC-2998 colon
[45] = tested on: RPMI-8226 leukemia
[46] = tested on: MDA-MB-231 breast
[47] = tested on: IGROV1 ovarian
[48] = tested on: EKVX NSCLC
[49] = tested on: SR leukemia
[50] = tested on: PC-3 prostate
[51] = tested on: SW-620 colon
[52] = tested on: MCF7 breast
[53] = tested on: NCI-H522 lung
[54] = tested on: HCT-15 colon
[55] = tested on: OVCAR-4 ovarian
[56] = tested on: ACHN renal

CC1(C)CC(O)CC(C)(C)N1O
> 100 µM: TGI [1] | TGI [2] | TGI [3] | TGI [4] | TGI [5] | TGI [6] | TGI [7] | TGI [8] | TGI [9] | TGI [10] | TGI [11] | TGI [12] | TGI [13] | TGI [14] | TGI [15] | TGI [16] | TGI [17] | TGI [18] | TGI [19] | TGI [20] | TGI [21] | TGI [22] | TGI [23] | TGI [24] | TGI [25] | TGI [26] | TGI [27] | TGI [28] | TGI [29] | TGI [30] | TGI [31] | TGI [32] | TGI [33] | TGI [34] | TGI [35] | TGI [36] | TGI [37] | TGI [38] | TGI [39] | TGI [40] | TGI [41] | TGI [42] | TGI [43] | TGI [44] | TGI [45] | TGI [46] | TGI [47] | TGI [48] | TGI [49] | TGI [50] | TGI [51] | TGI [52] | TGI [53] | TGI [54] | TGI [55] | TGI [56]
inactive: GI50 [1] > 100 µM | GI50 [2] > 100 µM | GI50 [3] > 100 µM | GI50 [4] > 100 µM | GI50 [5] > 100 µM | GI50 [6] > 100 µM | GI50 [7] > 100 µM | GI50 [8] > 100 µM | GI50 [9] 71.7 µM | GI50 [10] > 100 µM | GI50 [11] > 100 µM | GI50 [12] > 100 µM | GI50 [13] > 100 µM | GI50 [14] > 100 µM | GI50 [15] > 100 µM | GI50 [16] > 100 µM | GI50 [17] > 100 µM | GI50 [18] > 100 µM | GI50 [19] 44.5 µM | GI50 [20] > 100 µM | GI50 [21] > 100 µM | GI50 [22] > 100 µM | GI50 [23] > 100 µM | GI50 [24] > 100 µM | GI50 [25] > 100 µM | GI50 [26] > 100 µM | GI50 [27] > 100 µM | GI50 [28] > 100 µM | GI50 [29] > 100 µM | GI50 [30] > 100 µM | GI50 [31] 29.8 µM | GI50 [32] > 100 µM | GI50 [33] > 100 µM | GI50 [34] > 100 µM | GI50 [35] > 100 µM | GI50 [36] > 100 µM | GI50 [37] > 100 µM | GI50 [38] > 100 µM | GI50 [39] > 100 µM | GI50 [40] > 100 µM | GI50 [41] > 100 µM | GI50 [42] 47.2 µM | GI50 [43] > 100 µM | GI50 [44] > 100 µM | GI50 [45] > 100 µM | GI50 [46] > 100 µM | GI50 [47] > 100 µM | GI50 [48] > 100 µM | GI50 [49] > 100 µM | GI50 [50] > 100 µM | GI50 [51] > 100 µM | GI50 [52] > 100 µM | GI50 [53] > 100 µM | GI50 [54] > 100 µM | GI50 [55] 19.9 µM | GI50 [56] > 100 µM
